For the assay, the target named is T1, GtCPES (Guillardia theta, UniProt L1JFC7, M146A).
T1 sequence (L1JFC7 80-253 M146A): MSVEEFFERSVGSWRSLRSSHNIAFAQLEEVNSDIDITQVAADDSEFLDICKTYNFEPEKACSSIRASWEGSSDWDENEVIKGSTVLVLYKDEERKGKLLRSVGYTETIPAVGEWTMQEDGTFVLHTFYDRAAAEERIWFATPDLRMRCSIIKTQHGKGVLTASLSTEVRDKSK
Briefly: UV-Vis absorbance titration. It counts as binding.

These results are taken from publication doi:10.1101/2020.03.31.018853v1 (biorxiv, 2020).

As a reminder, the Kd is a measure of binding affinity in units of concentration. Low readings indicate higher affinity, high ones lower affinity.

The compound `C/C=C1/C(=C/c2[nH]c(/C=C3N=C(/C=C4\NC(=O)C(CC)=C4C)C(C)=C\3CCC(=O)O)c(CCC(=O)O)c2C)NC(=O)[C@@H]1C` [3(E)-PCB] gave a dissociation constant (Kd) of 7 ± 0.4 µM.
